Source: patent US6291676A, “Water-soluble derivatives of camptothecin/homocamptothecin” (priority 2000, dated 2001)

Key:
[1] = HPLC lactone stability in presence of DMPC SUV; format: physicochemical; conditions: for less lactone compared to the prior art monoamine (7AEC): DMPC
Protocol: To further study the differential interactions of CT-17 versus 7AEC with liposomal particles, high performance liquid chromatographic (HPLC) methods were employed to study drug stabilities in the absence and presence of membranes. In these experiments, small unilamellar vesicles (SUV) composed of dimyristoyl phosphatidylcholine (DMPC) were prepared by weighing out dry lipid powder (Avanti Polar Lipids) in a glass tube with screw cap top. The lipid was suspended in phosphate buffered saline, pH 7.4, at the concentration of 20 mg/ml and vortexed vigorously for 1 minute. The suspension was sonicated in a bath-type sonicator (Laboratory Supplies Co., Hicksville, N.Y.) for 2-4 hours until optically clear solution is obtained. […] A decrease in pH from 7.4 to 7.2 was observed. The pH of the SUV preparation was adjusted to 7.4 by the addition of 0.1 M potassium hydroxide. The sample was resonicated after pH adjustment until optically clear. Small unilamellar vesicles composed of dimyristoyl phosphatidylglycerol (DMPG) were also prepared by weighing out dry powder of the lipid (Avanti Polar Lipids) in a glass tube with screw-cap top and prepared as in the case of DMPC. The pH of the preparation decreased from 7.4 to 6.9 and was adjusted to 7.4 by the addition of 0.1 M KOH. The preparation was resonicated for 30 minutes until optically clear.
Stock solutions of 7-(1-Aminoethyl)camptothecin, a monoamine compound known in the prior art, and CT-17 as prepared in Example 18 were prepared by weighing out dry powder and dissolving in dimethylsulfoxide (DMSO) at a concentration of 2 mM. The SUV preparations from above were incubated at 37° C. in a water bath for 30 minutes. The two camptothecin drugs were added to the SUV preparations such that the final drug concentrations were 1 μM. The samples were incubated at 37° C. and aliquots were withdrawn at 1 hour and 3 hours and added to cold methanol (-20° C.) and immediately analyzed by reversed-phase HPLC using the conditions as follows. Analysis was performed using either Waters Alliance 2690 LC system equipped with temperature controlled autosampler or Waters LC system equipped with temperature controlled 717 plus Autosampler and 501 pumps. The detection was using either Waters 470 or 474 fluorescence detectors. Solvent A was 2% triethylammonium acetate, pH 5.5 and Solvent B was acetonitrile. The column used was Waters Symmetry C18, 5 μm (3.9×150 mm). The autosampler temperature was maintained at 4-5° C. The conditions used for analysis of 7-(1-Aminoethyl)camptothecin: Isocratic elution using 15% of solvent A and 85% of solvent B; detection using λcx =370 and λcm =440. […] The HPLC data was collected and analyzed using Waters Millenium chromatography manager.

[2] = Fluorescence emission spectra in solvents and vesicle suspensions; format: physicochemical; conditions: 37° C
Protocol: FIG. 1 is the fluorescence emission spectra of 1 μM of 7-(1-Aminoethyl)camptothecin (7AEC) in various solvents and suspensions such as phosphate buffered saline, ethanol, and phosphate buffered saline containing small unilamellar vesicles (SUVs) composed either of dimyristoylphosphatidylcholine (DMPC) or dimyristoylphosphatidlyglycerol (DMPG). Experiments were conducted at 37° C. using exciting light of 370 nm.
FIG. 2 is the fluorescence emission spectra of 4 μM of 7-[N-(4-methyl-1-piperazino) aminomethyl]-(20S)-camptothecin (CT-17) in various solvents and suspensions such as phosphate buffered saline, ethanol, and phosphate buffered saline containing small unilamellar vesicles (SUVs) composed either of DMPC or DMPG. Experiments were conducted at 37° C. using exciting light of 370 nm.
Fluorescence Instrumentation. Steady-state fluorescence measurements were obtained on a SLM Model 9850 spectrofluorometer with a thermostated cuvette compartment. This instrument was interfaced with an IBM PS/2 model 55 SX computer. Excitation and emission spectra were recorded with an excitation resolution of 8 nm and an emission resolution of 4 nm. In all cases spectra were corrected for background fluorescence and scatter from unlabeled lipids or from solvents by subtraction of the spectrum of a blank. Steady-state fluorescence intensity measurements were made in the absence of polarizers. […]

CC[C@@]1(O)C(=O)OCc2c1cc1n(c2=O)Cc2c-1nc1ccccc1c2CNN1CCN(C)CC1 [CT-17, 7-[N-(4-methyl-1-piperazino)aminomethyl]-(20S)-camptothecin]
remaining at 1 h, 1 µM ([1]; DMPC SUV, PBS pH 7.4, 37° C, 1 hr, 1 μM drug, read-out: Percentage of Lactone, DMPC, 1 Hr): 34 ± 3%
remaining at 3 h, 1 µM ([1]; DMPC SUV, PBS pH 7.4, 37° C, 3 hr, 1 μM drug, read-out: Percentage of Lactone, DMPC, 3 Hr): 19 ± 3%
less lactone compared to the prior art monoamine (7AEC) ([1]; 1 hr): 20%
less lactone compared to the prior art monoamine (7AEC) ([1]; 3 hr): 17%
change of fluorescence emission upon introduction of lipid bilayers ([2]; PBS with lipid bilayers): increase in fluorescence intensity
shift of the fluorescence emission spectra in the presence of liposomes ([2]; liposomes of DMPC or DMPG, λex 370 nm): shifts to shorter wavelength
